Experimental data published in PMC6222672, “Pharmacokinetic and Metabolism Studies of 12-Riboside-Pseudoginsengenin DQ by UPLC-MS/MS and UPLC-QTOF-MS^E” (Molecules : A Journal of Synthetic Chemistry and Natural …, 2018).
“Also recorded” adds a separate entry of the source. Like-named read-outs stand apart in the source and are kept apart here.

Key:
[1] = system: A549 cells; assay: MTT cell viability test, A549 cells; format: cell-based; details: 1-200 μM, 44 h
From the text: (§1) Antitumor activity test of RPDQ in vitro by using S180, SPC-A-1 and A549 cells
(§2) Since the startmaterial for the semi-synthesis of 12-Riboside-pseudoginsengenin DQ (RPDQ) was pseudoginsengenin DQ (PDQ), the antitumor activities of RPDQ […]
(§3) and PDQ were both tested.
(§4) The SPC-A-1 and S180 tumor cell lines were purchased from Wuhan Procell Life Science & Technology Co,.Ltd. A549 tumor cell lines were purchased from iCell Bioscience Inc (Shanghai) Biological Co., Ltd.
(§5) 2. Experimental procedure
(§6) S180 cells (1 × 10^5 cells/mL) were seeded into a 96-well plate. After 24 h, pretreated with various concentrations of RPDQ or PDQ (1-200 μM) for 44 h at 37℃, and the cells were treated with MTT for 4 h. The formazan crystal product in the cells were dissolved with acid isopropanol. The absorbance was measured at 570 nm with a […]
(§7) SPC-A-1/A549 cells(1×10^5 cells/mL) were seeded into a 96-well plate. After 24 h, pretreated with various concentrations of RPDQ or PDQ (1-200 μM) for 44 h at 37℃ , and the cells were treated with MTT for 4 h. […] The absorbance was measured at 490 nm with a […]
(§8) Cell viability was calculated by the following formula: Cell viability (%)= 1-{(ODcontrolgroup-ODtreatedgroup)/ODcontrol group×100%}.
(§9) All data were processed by statistical software SPSS 17.0. The data were expressed as Mean ± Standard Deviation. The differences between groups were analyzed by one-way analysis of variance. […]

[2] = format: in vitro ADME; details: rat
Protocol: RPDQ and 20R-panaxadiol stock methanol solutions (1.00 mg/mL) were all prepared with the reference compounds, respectively. Firstly, blank rat plasma was prepared. The blood samples were collected immediately from the abdominal aorta and incubated at 37 °C for 30 min. The plasma was separated by centrifugation at 4000 rpm for 15 min, and was frozen at −20 °C until analysis. By spiking the dilute solutions with blank rat plasma, calibration curves were plotted to produce the points equivalent to 5, 10, 25, 50, 100, 300, 500, and 1000 ng/mL for RPDQ. […] All the QC and calibration standards samples were prepared freshly before analysis. The specificity, linearity, LLOQ, precision and accuracy, extraction recovery, matrix effect, diluted reliability, and stability of the method were validated by following a non-clinical drug pharmacokinetic study technical guideline (China Food And Drug Administration 2014) and the Bioanalytical Method Validation Guideline (Chinese Pharmacopoeia 2015, Vol. 4). Specificity was assessed by comparing blank plasma samples, plasma was spiked with RPDQ and 20R-panaxadiol, and plasma samples were collected after administration. Linearity was analyzed through weighted regression (1/x^2) of peak area ratios (y) of RPDQ to 20R-panaxadiol versus nominal concentration (x) in plasma. […] The intra- and inter-day precision and accuracy were evaluated with the analysis of six replicate QC samples on three consecutive days, respectively. The extraction recovery and matrix effect at three QC concentrations were assayed. By comparing peak areas of RPDQ and 20R-panaxadiol in extracted QC samples with those in post-extracted blank plasma samples, the recoveries were calculated. Moreover, by comparing the peak area of samples spiked after extraction with that of the neat solution’s equivalent concentration, the matrix effect was then evaluated. Stability was evaluated by analyzing replicate QC samples, which were stored at −20 °C for two weeks at room temperature for 4 h, and experienced three freeze/thaw cycles (from −20 °C to room temperature) on consecutive days. The stabilities of RPDQ in stock solutions at 15 °C and stored in plastic autosampler vials for 16 h at 10 °C were also assessed. Five-fold higher concentrations of QC were achieved by adding moderate RPDQ to blank plasma. The samples were then diluted and analyzed with undiluted calibration standards. The accuracy and precision were within acceptable limits (± 15%).

[3] = system: SPC-A-1 cells; assay: MTT cell viability test, SPC-A-1 cells; format: cell-based; details: 1-200 μM, 44 h
From the text: as §1, §2, §3, §4, §5, §6, §7, §8, §9

CC(C)(O)[C@@H]1CC[C@@](C)([C@H]2CC[C@]3(C)[C@@H]2[C@H](O[C@@H]2O[C@H](CO)[C@@H](O)[C@H]2O)C[C@@H]2[C@@]4(C)CC[C@H](O)C(C)(C)[C@@H]4CC[C@]23C)O1 [RPDQ, 20S, 24S-12-O-β-D-ribofuranosyl-dammar-20, 24-epoxy-3β, 12β, 25-triol]
anticancer / anti-proliferation effect [1]: good anti-proliferation effects; also recorded: significant anticancer activity | Mean concentration ([2]; 15 ng/mL): 14.96 ± 0.58 ng/mL | Mean concentration ([2]; 200 ng/mL): 188.7 ± 16.57 ng/mL | Mean concentration ([2]; 800 ng/mL): 785.21 ± 19.19 ng/mL | Accuracy ([2]; 3 freeze-thaw cycles, 800 ng/mL): −1.85% | Accuracy ([2]; 3 freeze/thaw cycles, 15 ng/mL): −0.03% | Accuracy ([2]; 3 freeze/thaw cycles, 200 ng/mL): −5.65% | Accuracy ([2]; 4 h, 15 ng/mL): −1.00% | Mean concentration ([2]; 4 h, 15 ng/mL): 14.85 ± 0.72 ng/mL | Accuracy ([2]; 4 h, 200 ng/mL): −5.94% | Mean concentration ([2]; 4 h, 200 ng/mL): 188.12 ± 14.00 ng/mL | Accuracy ([2]; 4 h, 800 ng/mL): −3.25% | Mean concentration ([2]; 4 h, 800 ng/mL): 773.99 ± 26.01 ng/mL | Accuracy ([2]; 16 h, 15 ng/mL): 2.2% | Mean concentration ([2]; 16 h, 15 ng/mL): 15.33 ± 1.61 ng/mL | Accuracy ([2]; 16 h, 200 ng/mL): −6.52% | Mean concentration ([2]; 16 h, 200 ng/mL): 186.96 ± 13.41 ng/mL | Accuracy ([2]; 16 h, 800 ng/mL): 2.03% | Mean concentration ([2]; 16 h, 800 ng/mL): 816.23 ± 15.82 ng/mL | Accuracy ([2]; 14 d, 15 ng/mL): 2.74% | Mean concentration ([2]; 14 d, 15 ng/mL): 15.41 ± 1.47 ng/mL | Accuracy ([2]; 14 d, 200 ng/mL): −10.47% | Mean concentration ([2]; 14 d, 200 ng/mL): 179.07 ± 14.73 ng/mL | Accuracy ([2]; 14 d, 800 ng/mL): −1.71% | Mean concentration ([2]; 14 d, 800 ng/mL): 786.32 ± 19.88 ng/mL | anticancer / anti-proliferation effect [3]: good anti-proliferation effects; also recorded: significant anticancer activity
